Data published in patent US11524950B2, “Treatment of immune-related and inflammatory diseases” (Celgene Corporation, priority 2012, dated 2022).
Like-named read-outs stand apart in the source and are kept apart here.

Columns and labels:
H929 MM cell lines = assay: Cell proliferation in lenalidomide-sensitive and resistant H929 MM cells (7-AAD); format: cell-based; details: Homo sapiens, NCI-H929, 120 h, 5 days, read-out: IC50 for inhibition of proliferation
Description: CRBN ubiquitination was measured in HEK293T cells, which were transfected with an amino-terminal His-biotin-tagged CRBN construct, then preincubated with compounds for one hour followed by treatment with the MG132 proteasome inhibitor (to arrest degradation of ubiquitinated proteins). Cells were lysed and processed to measure CRBN ubiquitination by SDS-PAGE and immunoblot analysis using an anti-ubiquitin antibody. Cell proliferation studies were conducted in enalidomide-sensitive and refractory multiple myeloma cells. Lenalidomide-resistant or sensitive H929 MM cell lines were treated with Compound IA for 5 days, and then cell proliferation and viability were assessed by 7-aminoactinomycin D (“7-ADD”) staining. T-cell costimulation was measured in purified primary human T cells stimulated using immobilized anti-CD3 antibody in cell culture for 2 days, and cytokine secretion was measured by ELISA.

H929 cells = assay: H929 cell cycle (S-phase) and survivin, pRB, p27 expression; format: cell-based
BLIMP-1, XBP-1, and IgJ = assay: Plasmablast lineage factor gene expression (qRT-PCR), SLE patient PBMC; format: cell-based, human; details: 20 nM, n=3
Tsk-1 mouse = assay: Tight skin-1 (Tsk-1) mouse model: hypodermal thickness and hydroxyproline; format: in vivo; details: 30 mg/kg
From the text: First, the inhibitory effects of the compound on fibrosis in the Tsk-1 tight skin mouse model were also investigated.

NZBWF1/J mouse = NZBWF1/J mouse model of systemic lupus erythematosus; format: in vivo; details: 30 mg/kg; week 4
MRL/MpJ-Faslpr/J mouse = MRL/MpJ-Faslpr/J mouse model of systemic lupus erythematosus; format: in vivo; details: 30 mg/kg; week 4
IgG = IgG production by SLE patient PBMC (ELISA); details: Homo sapiens, read-out: IgG IC50 (nM) SLE (n = 3)
Description: Supernatants (from section 8.2.3) were harvested and analyzed by ELISA for IgG and IgM production (ZeptoMetrix Corp. Buffalo, N.Y.).
B Cell Differentiation Protocol: Enriched B cells were isolated from fresh buffy-coat (leukocyte enriched units) by Ficoll-Hypaque density gradient centrifugation followed by incubation with EasySep negative selection human B cell enrichment kit (Stem cell technologies). In brief, 2×10^8/ml PBMC were mixed with 4 ml of Robosep buffer and transferred to a 14 mL polystyrene round bottom tube. EasySep Human B cell enrichment cocktail (200 μL) was added per tube, vortexed and incubated at room temperature for 10 minutes. […] After cells were counted, an aliquot was removed for FACS analysis and the remaining cells were used for culture. […]
CD19+ peripheral blood human B cells from normal donors, or total peripheral blood mononuclear cell PBMC for patients with systemic lupus erythematosus (“SLE”), were cultured in the presence of interleukin (“IL”)-2, IL-10, IL15, TLR9 agonist, and CD40 L for 4 days, followed by IL-2, IL-6, IL-10 and IL-15 for another 3 days. Cells were counted, viability assessed, and expression of CD20, CD38, CD44, and CD83 were measured by flow cytometry. Plasmablast lineage factors IRF-4, BLIMP-1, XBP-1, and IgJ, and germinal center markers PAX-5 and BCL-6 were measured by qRT-PCR. […] Secreted immunoglobulins IgG and IgM were measured by ELISA.

[1] = test system: BCL-6, IRF-4, BLIMP-1, PAX5 and XBP-1; assay: Transcription factor protein expression by laser scanning cytometry (iCyte), normal B cells; format: cell-based, human; details: Day 7, 20 nM
Description: (§1) Preparation Of Cytospin From Single Cell Suspension And Immunofluorescence Staining for iCyte: A cell suspension of not more than 0.5×10^6 cells/ml of 2% FBS-containing PBS was prepared. Up to 200 μl of this suspension was loaded in each cuvette and spinned at 800 rpm for 3 min. The cuvette and the paper were carefully detached without damaging the fresh cytospin and proceeded with either immediate fixation or drying. Unfixed cytospins were stored for max 2 days at room temperature. Cells on slides were fixed with increasing concentrations of EtOH and allowed to dry prior to staining. After blocking non-specific binding with normal serum (species same as secondary antibody), sections were incubated with the mixture of following monoclonal antibodies in a humidified chamber at cool room for overnight: (i) anti-human CD38 as plasmablast cell marker, and (ii) anti-BCL-6, IRF-4, BLIMP-1, PAX5 and XBP-1 for transcription factor proteins. After washings, slides were incubated for 1 hr at room temperature in dark with the mixture of secondary antibodies which were raised in different species (with two different fluorochromes, i.e., Alexa Fluor-488 and Alexa Fluor-633). The slides were then rinsed in PBS, counterstained with DAPI for 20 minutes at room temperature, coverslipped with anti-fade fluorescent mounting medium, and sealed with nail polish. The slides were stored in dark at 4° C. To exclude false positives produced by nonspecific binding of the secondary antibody, all of the tissues were treated in the same manner with buffer substituting for the primary antibody. The color of the antibody staining was observed and quantity was analyzed in the tissue sections using iCyte.

BCL-6, IRF-4 and BLIMP-1 = assay: Transcription factor protein expression by laser scanning cytometry, SLE patient PBMC; format: cell-based, human; details: CD38+ plasmablast/plasma cells, Day 4 and Day 7 SLE patient PBMC
Description: as §1

CD44 = CD44 expression in B cell differentiation culture (flow cytometry); format: cell-based, human; details: Day 7; for percentage of CD20high/CD44high cells: DMSO 22.2%
Description: Immunophenotyping For Flow Cytometric Analysis: Cells were stained using multicolor direct immunofluorescence stain for flow cytometric analysis. Surface staining was performed before cell fixation and permeabilization. Cells (50 μl; 1×10^6 cells/ml in washing buffer, 2% FBS with 0.1% NaN3 in PBS) were used for each staining. The cells were stained with isotype control mAb ([…]) and multicolor FITC-conjugated anti-CD20 mAb and PE-conjugated anti-CD38 mAb, or PerCP-Cy5.5 conjugated anti-CD44 mAb, PE-conjugated anti-CD83 mAb were used for day 4 activated B cells (CD20+CD38-cells), and day 4 PBs and day 7 PBs (CD20-CD38+), and other staining, analyzed by flow cytometry as per manufacturer's instructions. The intracellular staining of transcription factor proteins (BCL-6, IRF-4, BLIMP-1, PAX-5 and XBP-1) and IgJ was performed according to the manufacturer's recommendations. Flow cytometric analysis was performed with a FACSCanto using FACSDiva 6 (BD Biosciences). For data analysis, Flowjo (Tree Star) software was used.
Using the same B cells in vitro differentiation system, the activity of the test compound on CD44 and CD83 expression in B cell differentiation was further investigated. Multicolor FITC-conjugated anti-CD20 mAb, PerCP Cy5.5-conjugated anti-CD44 mAb and PE-conjugated anti-CD83 mAb are used for day 4 and day 7 cells. The effect of the test compound was evaluated from 3 separate experiments representative of 3 donors.

[2] = CD38+ plasmablast/plasma cells, listed as Compound I-S

O=C1CC[C@H](N2Cc3c(OCc4ccc(CN5CCOCC5)cc4)cccc3C2=O)C(=O)N1 [Test compound, (S)-3-[4-(4-morphlin-4-ylmethylbenzyloxy)-1-oxo-1,3-dihydro-isoindo-2-yl]piperidine-2,6-dione]
IC50 (H929 MM cell lines; DMSO-treated subclone): 0.04 µM | IC50 (H929 MM cell lines; lenalidomide resistant subclones): 0.51 to 1.58 µM | IC50 (H929 MM cell lines; parental H929 cell line): 0.01 µM | decrease in cell cycle (S-phase) (H929 cells; 24 hours of treatment): 50% | expression of cyclin-dependent kinase inhibitor p27 (H929 cells; 48 hours): increased expression | expression of retinoblastoma protein (pRB) (H929 cells; 48 hours): decreased expression | expression of survivin (H929 cells; 48 hours): decreased expression | BLIMP-1 gene expression (BLIMP-1, XBP-1, and IgJ): 52.8 % of control | IgJ gene expression (BLIMP-1, XBP-1, and IgJ): 13.6 % of control | XBP-1 gene expression (BLIMP-1, XBP-1, and IgJ): 49.2 % of control | reduction of collagen content of the skin (hydroxyproline levels) (Tsk-1 mouse): 38% | reduction of hypodermal thickening (Tsk-1 mouse; p≤0.001): 45% | anti-double stranded DNA autoantibody level, increase (NZBWF1/J mouse): 86% | peripheral blood B cells, decrease (NZBWF1/J mouse): 25% | splenic B cells (NZBWF1/J mouse): no change | Splenic B cells, increase (MRL/MpJ-Faslpr/J mouse): 37% | anti-double stranded DNA autoantibody level, decrease (MRL/MpJ-Faslpr/J mouse): 25% | peripheral blood B cells (MRL/MpJ-Faslpr/J mouse): no change | IC50 (IgG): 3.2 nM | BCL-6 expression ([1]; CD38+ plasmablast/plasma cells): significantly increased | BLIMP-1 expression ([1]; CD38+ plasmablast/plasma cells): decreased | IRF-4 expression ([1]; CD38+ plasmablast/plasma cells): decreased | PAX-5 expression ([1]; CD38+ plasmablast/plasma cells): decreased | BCL-6 expression [1, 2]: increased | BLIMP-1 expression [1, 2]: reduced | IRF-4 expression [1, 2]: reduced | XBP-1 expression ([1]; both cell populations): no change | BCL-6 expression ([1]; whole lymphocyte population): significantly increased | BLIMP-1 expression ([1]; whole lymphocyte population): decreased | IRF-4 expression ([1]; whole lymphocyte population): decreased | BCL-6 expression (BCL-6, IRF-4 and BLIMP-1): significantly increased | BLIMP-1 expression (BCL-6, IRF-4 and BLIMP-1): inhibited | RF-4 expression (BCL-6, IRF-4 and BLIMP-1): inhibited | BCL-6 expression (BCL-6, IRF-4 and BLIMP-1; listed as Compound I-S): increased | BLIMP-1 expression (BCL-6, IRF-4 and BLIMP-1; listed as Compound I-S): significantly reduced | RF-4 expression (BCL-6, IRF-4 and BLIMP-1; listed as Compound I-S): significantly reduced | CD44 mean fluorescence intensity (MFI) (CD44): dose-dependently and significantly decreased | percentage of CD20high/CD44high cells (CD44; 2 nM): 18.4% | percentage of CD20high/CD44high cells (CD44; 20 nM): 10.1% | percentage of CD20high/CD44high cells (CD44; 200 nM): 6.6%
